BindingDB's records for doi:10.1021/jm000130i (Duquesne University, 2000)

Columns and labels:
[1] = molecular target: T1, Bifunctional dihydrofolate reductase-thymidylate synthase (Toxoplasma gondii, UniProt Q07422); assay: Inhibitory concentration against Toxoplasma gondii Dihydrofolate reductase
T1 sequence (Q07422 whole entry): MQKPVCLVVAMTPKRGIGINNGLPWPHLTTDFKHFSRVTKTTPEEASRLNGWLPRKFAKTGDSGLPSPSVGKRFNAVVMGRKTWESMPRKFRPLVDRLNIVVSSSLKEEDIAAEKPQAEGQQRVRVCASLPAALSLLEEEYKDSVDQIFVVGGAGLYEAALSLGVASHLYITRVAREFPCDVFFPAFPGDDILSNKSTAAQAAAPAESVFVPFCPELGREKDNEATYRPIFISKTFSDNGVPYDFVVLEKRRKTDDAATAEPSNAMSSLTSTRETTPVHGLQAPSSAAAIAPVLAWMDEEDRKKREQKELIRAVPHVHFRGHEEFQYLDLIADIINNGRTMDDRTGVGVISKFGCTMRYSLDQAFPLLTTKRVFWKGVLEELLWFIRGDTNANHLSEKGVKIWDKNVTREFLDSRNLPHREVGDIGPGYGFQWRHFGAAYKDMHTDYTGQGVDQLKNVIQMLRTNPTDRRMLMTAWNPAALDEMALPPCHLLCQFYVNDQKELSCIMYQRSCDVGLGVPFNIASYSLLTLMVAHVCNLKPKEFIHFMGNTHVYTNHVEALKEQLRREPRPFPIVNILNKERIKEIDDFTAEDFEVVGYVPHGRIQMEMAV

[2] = molecular target: Dihydrofolate reductase (Lacticaseibacillus casei, UniProt P00381); assay: Inhibitory concentration against Lactobacillus casei Dihydrofolate reductase
Dihydrofolate reductase, sequence (P00381 whole entry): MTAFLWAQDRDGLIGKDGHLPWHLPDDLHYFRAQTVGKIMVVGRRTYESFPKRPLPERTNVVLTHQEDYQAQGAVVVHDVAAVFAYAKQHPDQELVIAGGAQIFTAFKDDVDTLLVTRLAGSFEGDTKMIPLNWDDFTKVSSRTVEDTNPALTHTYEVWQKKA

## C/C(=C\c1coc2nc(N)nc(N)c12)c1ccc(C(=O)N[C@@H](CCC(=O)O)C(=O)O)cc1
[1]
  IC50: 4.4 µM
[2]
  IC50: 4.4 µM
